Source: US20170050957A1, “4-AMINO-6-(HETEROCYCLIC)PICOLINATES AND 6-AMINO-2-(HETEROCYCLIC)PYRIMIDINE-4-CARBOXYLATES AND THEIR USE AS HERBICIDES” (Dow AgroSciences LLC, priority 2013, published 2017)
Where two headings read alike, the source gives them in different places.

How the values were obtained:
[1] = tested on: Key Grass and Sedge Weeds as well as Grass Crops; assay: Post-emergent Test II herbicidal activity (Table 16); type: in vivo; details: post-emergence, 336 h, 14 d; for pest or weed control at 35 g/ha: 35 g ai/ha; for pest or weed control at 70 g/ha: 70 g ai/ha; for pest or weed control at 140 g/ha: 140 g ai/ha
Protocol: (§1) Post-emergent Test II: Seeds or nutlets of the desired test plant species were planted in Sun Gro Metro-Mix® 360 planting mixture, which typically has a pH of 6.0 to 6.8 and an organic matter content of about 30 percent, in plastic pots with a surface area of 64 square centimeters. When required to ensure good germination and healthy plants, a fungicide treatment and/or other chemical or physical treatment was applied. The plants were grown for 7-21 d in a greenhouse with an approximate 15 h photoperiod which was maintained at about 23-29° C. during the day and 22-28° C. during the night. Nutrients and water were added on a regular basis and supplemental lighting was provided with overhead metal halide 1000-Watt lamps as necessary. The plants were employed for testing when they reached the first or second true leaf stage.
(§2) A weighed amount, determined by the highest rate to be tested, of each test compound was placed in a 25 mL glass vial and was dissolved in 4 mL of a 97:3 v/v mixture of acetone and DMSO to obtain concentrated stock solutions. […] The concentrated stock solutions obtained were diluted with 20 mL of an aqueous mixture containing acetone, water, isopropyl alcohol, DMSO, Atplus 411F crop oil concentrate, and Triton® X-155 surfactant in a 48.5:39:10:1.5:1.0:0.02 v/v ratio to obtain spray solutions containing the highest application rates. Additional application rates were obtained by serial dilution of 12 mL of the high rate solution into a solution containing 2 mL of 97:3 v/v mixture of acetone and DMSO and 10 mL of an aqueous mixture containing acetone, water, isopropyl alcohol, DMSO, Atplus 411F crop oil concentrate, and Triton X-155 surfactant in a 48.5:39:10:1.5:1.0:0.02 v/v ratio to obtain 1/2×, 1/4×, 1/8× and 1/16× rates of the high rate. Compound requirements are based upon a 12 mL application volume at a rate of 187 liters per hectare (L/ha). Formulated compounds were applied to the plant material with an overhead Mandel track sprayer equipped with 8002E nozzles calibrated to deliver 187 L/ha over an application area of 0.503 square meters at a spray height of 18 inches (43 cm) above the average plant canopy height. Control plants were sprayed in the same manner with the solvent blank.
(§3) The treated plants and control plants were placed in a greenhouse as described above and watered by subirrigation to prevent wash-off of the test compounds. After 14 d, the condition of the test plants as compared with that of the untreated plants was determined visually and scored on a scale of 0 to 100 percent where 0 corresponds to no injury and 100 corresponds to complete kill.

[2] = tested on: Key Broadleaf Weed and Crop Species; assay: Post-emergent Test II herbicidal activity (Table 15); type: in vivo; details: post-emergence, 336 h, 14 d; for pest or weed control at 35 g/ha: 35 g ai/ha; for pest or weed control at 70 g/ha: 70 g ai/ha; for pest or weed control at 140 g/ha: 140 g ai/ha
Protocol: as §1, §2, §3

[3] = Cyperus esculentus, yellow nutsedge (Cyperus esculentus), read-out: Visual Growth Reduction (%) 14 Days After Application, CYPES
[4] = Echinochloa crus-galli, barnyardgrass (Echinochloa crus-galli), read-out: Visual Growth Reduction (%) 14 Days After Application, ECHCG
[5] = Oryza sativa, rice (Oryza sativa), read-out: Visual Growth Reduction (%) 14 Days After Application, ORYSA
[6] = Setaria faberi, giant foxtail (Setaria faberi), read-out: Visual Growth Reduction (%) 14 Days After Application, SETFA
[7] = Triticum aestivum, wheat, spring (Triticum aestivum), read-out: Visual Growth Reduction (%) 14 Days After Application, TRZAS
[8] = Zea mays, maize, corn (Zea mays), read-out: Visual Growth Reduction (%) 14 Days After Application, ZEAMX
[9] = Abutilon theophrasti, velvetleaf (Abutilon theophrasti), read-out: Visual Growth Reduction (%) 14 Days After Application, ABUTH
[10] = Amaranthus retroflexus, redroot pigweed (Amaranthus retroflexus), read-out: Visual Growth Reduction (%) 14 Days After Application, AMARE
[11] = Brassica napus, oilseed rape, canola (Brassica napus), read-out: Visual Growth Reduction (%) 14 Days After Application, BRSNN
[12] = Chenopodium album, lambsquarters (Chenopodium album), read-out: Visual Growth Reduction (%) 14 Days After Application, CHEAL
[13] = Euphorbia heterophylla, wild poinsettia (Euphorbia heterophylla), read-out: Visual Growth Reduction (%) 14 Days After Application, EPHHL
[14] = Helianthus annuus, sunflower (Helianthus annuus), read-out: Visual Growth Reduction (%) 14 Days After Application, HELAN

SMILES | pest or weed control at 35 g/ha [1, 3] | pest or weed control at 70 g/ha [1, 3] | pest or weed control at 140 g/ha [1, 3] | pest or weed control at 35 g/ha [1, 4] | pest or weed control at 70 g/ha [1, 4] | pest or weed control at 35 g/ha [1, 5] | pest or weed control at 70 g/ha [1, 5] | pest or weed control at 35 g/ha [2, 9] | pest or weed control at 70 g/ha [2, 9] | pest or weed control at 35 g/ha [2, 10] | pest or weed control at 70 g/ha [2, 10] | pest or weed control at 35 g/ha [2, 11] | pest or weed control at 70 g/ha [2, 11] | pest or weed control at 35 g/ha [2, 12] | pest or weed control at 70 g/ha [2, 12] | pest or weed control at 35 g/ha [2, 13] | pest or weed control at 70 g/ha [2, 13] | pest or weed control at 35 g/ha [2, 14] | pest or weed control at 70 g/ha [2, 14] | melting point | also measured
COC(=O)c1nc(-c2ccc3cc[nH]c3c2)cc(N)c1Cl [Compound 1.21] | 0 to 29% | 0 to 29% | 0 to 29% | 0 to 29% | 0 to 29% | 0 to 29% | 0 to 29% | 60 to 74% | 60 to 74% | 0 to 29% | 0 to 29% | 0 to 29% | 0 to 29% | 45 to 59% | 85 to 94% | 75 to 84% | 85 to 94% | 45 to 59% | 75 to 84% | 83 to 85 °C | pest or weed control at 140 g/ha [1, 5]: 0 to 29%; pest or weed control at 140 g/ha [1, 6]: 0 to 29%; pest or weed control at 35 g/ha [1, 7]: 0 to 29%; pest or weed control at 70 g/ha [1, 7]: 0 to 29%; pest or weed control at 140 g/ha [1, 7]: 0 to 29%; pest or weed control at 35 g/ha [1, 8]: 0 to 29%; pest or weed control at 70 g/ha [1, 8]: 0 to 29%; pest or weed control at 140 g/ha [1, 8]: 0 to 29%
C=Cc1c(N)nc(-c2ccc3cc[nH]c3c2F)nc1C(=O)O [Compound 1.39] | 0 to 29% | 0 to 29% |  | 0 to 29% | 0 to 29% | 0 to 29% | 0 to 29% | 0 to 29% | 0 to 29% | 95 to 100% | 95 to 100% | 75 to 84% | 85 to 94% | 95 to 100% | 75 to 84% | 85 to 94% | 75 to 84% | 0 to 29% | 0 to 29% | 209 to 211 °C | pest or weed control at 35 g/ha [1, 6]: 0 to 29%; pest or weed control at 70 g/ha [1, 6]: 0 to 29%; pest or weed control at 35 g/ha [1, 7]: 0 to 29%; pest or weed control at 70 g/ha [1, 7]: 0 to 29%; pest or weed control at 35 g/ha [1, 8]: 0 to 29%; pest or weed control at 70 g/ha [1, 8]: 0 to 29%
COC(=O)c1nc(-c2ccc(Cl)c3cc[nH]c23)cc(N)c1Cl [Compound 1.49] |  |  |  |  |  |  |  | 85 to 94% | 85 to 94% | 0 to 29% | 30 to 44% | 0 to 29% | 0 to 29% | 85 to 94% | 85 to 94% | 0 to 29% | 0 to 29% | 0 to 29% | 0 to 29% | 186 to 188 °C | pest or weed control at 140 g/ha [2, 9]: 85 to 94%; pest or weed control at 140 g/ha [2, 10]: 0 to 29%; pest or weed control at 140 g/ha [2, 11]: 0 to 29%; pest or weed control at 140 g/ha [2, 12]: 95 to 100%; pest or weed control at 140 g/ha [2, 13]: 0 to 29%; pest or weed control at 140 g/ha [2, 14]: 45 to 59%
Nc1c(F)c(-c2cccc3occc23)nc(C(=O)O)c1Cl [Compound 2.17] |  |  | 95 to 100% |  |  |  |  |  |  |  |  |  |  |  |  |  |  |  |  | 170 to 173 °C | pest or weed control at 140 g/ha [1, 4]: 75 to 84%; pest or weed control at 140 g/ha [1, 5]: 0 to 29%; pest or weed control at 140 g/ha [1, 6]: 0 to 29%; pest or weed control at 140 g/ha [1, 7]: 0 to 29%; pest or weed control at 140 g/ha [1, 8]: 30 to 44%; pest or weed control at 140 g/ha [2, 9]: 75 to 84%; pest or weed control at 140 g/ha [2, 10]: 95 to 100%; pest or weed control at 140 g/ha [2, 11]: 75 to 84%; pest or weed control at 140 g/ha [2, 12]: 95 to 100%; pest or weed control at 140 g/ha [2, 13]: 95 to 100%; pest or weed control at 140 g/ha [2, 14]: 85 to 94%
